Experiment [1] concerns the target T1, 20S Human Erythrocyte Proteasome (HEP) (Homo sapiens, UniProt P20618+P28074).
T1 construct: 20S Human Erythrocyte Proteasome (HEP), purchased from Immatics Biotechnologies Inc; purchased Immatics Biotechnologies Inc., Tübingen, Germany; host or cells: human erythrocytes (natural source)
The experiment is described as follows: Chymotrypsin-like activity of 20S Human Erythrocyte Proteasome (HEP), IC50 determination. Type of experiment: biochemical. The note with it: assay of Example C, inhibition of HEP. A digest of the protocol:
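20S proteasome at 0.2 μg/mL (about 0.6 nM catalytic sites) in 20 mM Tris with 0.04% SDS, preincubated 15 min at 37° C with inhibitor before Suc-LLVY-AMC (100 μM final). AMC fluorescence read in the linear range; triplicates, IC50 from concentration series.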

For experiment [2], the target named is T2, proteasome in Molt-4 cells (human leukemia) (Homo sapiens, UniProt P20618+P28074).
T2 sequence (P28074 60-263): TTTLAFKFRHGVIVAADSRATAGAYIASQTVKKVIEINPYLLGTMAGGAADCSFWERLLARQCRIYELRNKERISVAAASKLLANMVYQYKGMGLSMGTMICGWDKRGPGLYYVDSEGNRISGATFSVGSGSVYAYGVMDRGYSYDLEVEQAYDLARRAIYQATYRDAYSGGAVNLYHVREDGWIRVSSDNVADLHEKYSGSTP
T2 sequence (P20618 29-241): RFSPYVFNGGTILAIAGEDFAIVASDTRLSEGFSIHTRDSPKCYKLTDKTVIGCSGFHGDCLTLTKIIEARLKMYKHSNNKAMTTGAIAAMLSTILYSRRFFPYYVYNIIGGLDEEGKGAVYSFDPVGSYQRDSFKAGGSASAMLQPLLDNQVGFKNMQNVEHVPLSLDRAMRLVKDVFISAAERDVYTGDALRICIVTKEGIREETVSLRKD
The format is cell-based. The note with it: assay of Example E, inhibition of MOLT4; read-out: MOLT4 (EC50). A digest of the protocol:
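Intact Molt-4 cells (6×10^6 cells/mL) in HEPES-buffered saline were preincubated with inhibitor 15 min at 37 °C, then given cell-permeable MeOSuc-FLF-AFC at 25 μM final.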

A value given as a limit tells only on which side of the number the result lay.

We go through 15 compounds from patent US8546608B2, “Proteasome inhibitors and methods of using the same” (Cephalon, Inc., priority 2003, dated 2013).

The IC50 is the concentration that gives 50% inhibition. Low values mean greater potency, high ones weaker potency. The term EC50 denotes the concentration at which the effect is half-maximal.

Take `CC(C)C[C@H](NC(=O)[C@H](CCCNC(=N)N[N+](=O)[O-])NC(=O)c1cnccn1)B(O)O` [E.1.2, Boronic acid, [(1R)-1-[[(2S)-5-[[imino(nitroamino)methyl]amino]-2-[(2-pyrazine-carbonyl)amino]-1-oxopentyl]amino]-3-methylbutyl]]: the IC50 in experiment [1] is < 0.01 µM. Also, the EC50 in experiment [2] was in the range of 2 to 10 µM.

Take `CC(=O)NCC(=O)N[C@@H](CCCNC(=N)N[N+](=O)[O-])C(=O)N[C@@H](CC(C)C)B1O[C@@H]2C[C@@H]3C[C@@H](C3(C)C)[C@]2(C)O1` [D.1.11, 2-Acetylamino-acetamide,N-[(1S)-1-[[[(1R)-1-[(3aS,4S,6S,7aR)-hexahydro-3a,5,5-trimethyl-4,6-methano-1,3,2-benzodioxaborol-2-yl]-3-methylbutyl]amino]carbonyl]-4-[[imino(nitroamino)methyl]amino]butyl]]: in experiment [1], the IC50 was < 0.1 µM. Further, the EC50 in experiment [2] is > 10 µM.

With `Cc1ccc(CCCC(=O)N[C@@H](CCCNC(=N)N[N+](=O)[O-])C(=O)N[C@@H](CC(C)C)B2O[C@@H]3C[C@@H]4C[C@@H](C4(C)C)[C@]3(C)O2)cc1` [D.3.36, 4-(4-methylphenyl)butanamide,N-[(1S)-1-[[[(1R)-1-[(3aS,4S,6S,7aR)-hexahydro-3a,5,5-trimethyl-4,6-methano-1,3,2-benzodioxaborol-2-yl]-3-methylbutyl]amino]carbonyl]-4-[[imino(nitroamino)methyl]amino]butyl]], the IC50 in experiment [1] is < 0.01 µM. In experiment [2], the EC50 was < 0.2 µM.

`CC(C)C[C@H](NC(=O)[C@H](CCCNC(=N)N[N+](=O)[O-])NC(=O)CCCc1ccccc1)B(O)O` [E.2.7, Boronic acid, [(1R)-1-[[(2S)-5-[[imino(nitroamino)methyl]amino]-2-[(4-phenylbutanoyl)amino]-1-oxopentyl]amino]-3-methylbutyl]]: in experiment [1], the IC50 is < 0.01 µM. The EC50 in experiment [2] fell in the range of 2 to 10 µM.

In the case of `CC(C)C[C@H](NC(=O)[C@H](CCCNC(=N)N[N+](=O)[O-])NC(=O)C1CCN(C(=O)OC(C)(C)C)CC1)B(O)O` (racemic) [D.7.7, Boronic acid, [(1R)-1-[[(2S)-5-[[imino(nitroamino)methyl]amino]-2-[[(4RS)-1-[(1,1-dimethylethoxy)carbonyl]piperidine-4-carbonyl]amino]-1-oxopentyl]amino]-3-methylbutyl]], in experiment [1], the IC50 was < 0.01 µM. Further, the EC50 in experiment [2] was > 10 µM.

As to `CCCCCC(=O)N[C@H](C(=O)N[C@@H](CC(C)C)B1O[C@@H]2C[C@@H]3C[C@@H](C3(C)C)[C@]2(C)O1)[C@@H](C)O` [D.3.178, Hexanamide,N-[(1S,2R)-1-[[[(1R)-1-[(3aS,4S,6S,7aR)-hexahydro-3a,5,5-trimethyl-4,6-methano-1,3,2-benzodioxaborol-2-yl]-3-methylbutyl]amino]carbonyl]-2-hydroxypropyl]], the IC50 in experiment [1] is < 0.1 µM. Also, the EC50 in experiment [2] is < 0.2 µM.

Consider `CC(C)C[C@H](NC(=O)[C@@H](NC(=O)CCCc1ccccc1)[C@@H](C)O)B1O[C@@H]2C[C@@H]3C[C@@H](C3(C)C)[C@]2(C)O1` [D.3.176, 4-Phenylbutanamide,N-[(1S,2R)-1-[[[(1R)-1-[(3aS,4S,6S,7aR)-hexahydro-3a,5,5-trimethyl-4,6-methano-l53.2-benzodioxaborol-2-yl]-3-methylbutyl]amino]carbonyl]-2-hydroxypropyl]], for which, in experiment [1], the IC50 was < 0.01 µM. Besides, in experiment [2], the EC50 is < 0.2 µM.

Turning to `CCCCc1ccc(NC(=O)N[C@@H](CCCNC(=N)N[N+](=O)[O-])C(=O)N[C@@H](CC(C)C)B2O[C@@H]3C[C@@H]4C[C@@H](C4(C)C)[C@]3(C)O2)cc1` [D.6.8, N-[(1S)-1-[[[(1R)-1-[(3aS,4S,6S,7aR)-hexahydro-3a,5,5-trimethyl-4,6-methano-1,3,2-benzodioxaborol-2-yl]-3-methylbutyl]amino]carbonyl]-4-[[imino(nitroamino)methyl]amino]butyl]-N′-(4-butylphenyl) urea], in experiment [1], the half-inhibitory concentration (IC50) is < 0.1 µM. For the same compound, the EC50 in experiment [2] was < 0.2 µM.

As for `CC(C)C[C@H](NC(=O)[C@H](CCCNC(=N)N[N+](=O)[O-])NC(=O)CCN1C(=O)c2ccccc2C1=O)B1O[C@@H]2C[C@@H]3C[C@@H](C3(C)C)[C@]2(C)O1` [D.1.3, 3-(1,3-Dioxo-1,3-dihydro-isoindol-2-yl)-propanamide,N-[(1S)-1-[[[(1R)-1-[(3aS,4S,6S,7aR)-hexahydro-3a,5,5-trimethyl-4,6-methano-1,3,2-benzodioxaborol-2-yl]-3-methylbutyl]amino]carbonyl]-4-[[imino(nitroamino)methyl]amino]butyl]], in experiment [1], the IC50 is < 0.01 µM. Moreover, in experiment [2], the EC50 lay in the range of 0.2 to 2 µM.

In the case of `Cc1ccc(CCCC(=O)N[C@@H](CCCNC(=N)N[N+](=O)[O-])C(=O)N[C@@H](CC(C)C)B(O)O)cc1` [D.7.3, Boronic acid, [(1R)-1-[[(2S)-5-[[imino(nitroamino)methyl]amino]-2-[(4-(4-methylphenyl)butanoyl)amino]-1-oxopentyl]amino]-3-methylbutyl]], in experiment [1], the concentration for half-maximal inhibition (IC50) was < 0.01 µM. Besides, the EC50 in experiment [2] is 2 to 10 µM.

`Cc1ccc(C(=O)N[C@@H](CCCNC(=N)N[N+](=O)[O-])C(=O)N[C@@H](CC(C)C)B(O)O)s1` [D.7.12, Boronic acid, [(1R)-1-[[(2S)-5-[[imino(nitroamino)methyl]amino]-2-[(5-methylthiophene-2-carbonyl)amino]-1-oxopentyl]amino]-3-methylbutyl]]: the IC50 in experiment [1] was < 0.01 µM. Besides, the EC50 in experiment [2] was > 10 µM.

For `CCCCc1ccc(C(=O)N[C@@H](CNC(=O)c2cnccn2)C(=O)N[C@@H](CC(C)C)B(O)O)cc1` [E.5, Boronic Acid, [(1R)-1-[[(2S)-3-(2-pyrazincarbonylamino)-2-[(4-butylbenzoylamino)]-1-oxopropyl]amino]-3-methylbutyl]], in experiment [1], the IC50 is < 0.01 µM. Moreover, the EC50 in experiment [2] was < 0.2 µM.

For the compound `CCCCOc1ccc(S(=O)(=O)N[C@@H](CCCNC(=N)N[N+](=O)[O-])C(=O)N[C@@H](CC(C)C)B2O[C@@H]3C[C@@H]4C[C@@H](C4(C)C)[C@]3(C)O2)cc1` [D.4.6, 4-Butoxyenzenesulfonamide, N-[(1S)-1-[[[(1R)-1-[(3aS,4S,6S,7aR)-hexahydro-3a,5,5-trimethyl-4,6-methano-1,3,2-benzodioxaborol-2-yl]-3-methylbutyl]amino]carbonyl]-4-[[imino(nitroamino)methyl]amino]butyl]], the IC50 in experiment [1] was < 0.1 µM. In experiment [2], the EC50 was < 0.2 µM.

For the compound `CCCCCCCC(=O)N[C@@H](CCCNC(=N)N[N+](=O)[O-])C(=O)N[C@@H](CC(C)C)B1O[C@@H]2C[C@@H]3C[C@@H](C3(C)C)[C@]2(C)O1` [D.3.8, Octanamide,N-[(1S)-1-[[[(1R)-1-[(3aS,4S,6S,7aR)-hexahydro-3a,5,5-trimethyl-4,6-methano-1,3,2-benzodioxaborol-2-yl]-3-methylbutyl]amino]carbonyl]-4-[[imino(nitroamino)methyl]amino]butyl]], in experiment [1], the IC50 was < 0.01 µM. In addition, in experiment [2], the EC50 is < 0.2 µM.

`CSCCC(=O)N[C@@H](CCCNC(=N)N[N+](=O)[O-])C(=O)N[C@@H](CC(C)C)B(O)O` [E.2.50, Boronic acid, [(1R)-1-[[(2S)-5-[[imino(nitroamino)methyl]amino]-2-[(3-Methylsulfanylpropanoyl)amino]-1-oxopentyl]amino]-3-methylbutyl]]: the IC50 in experiment [1] is < 0.01 µM. Moreover, the 50% effective concentration (EC50) in experiment [2] was > 10 µM.
